Calls of active or inactive are those of the source. No cut-off for these calls is given here.
Tests used:
[1] = test system: K562; assay: Antiproliferative activity against human K562 cells
[2] = test system: THP-1; assay: Antiproliferative activity against human THP-1 cells
[3] = test system: HEL; assay: Antiproliferative activity against HEL cells; settings: Homo sapiens
[4] = molecular target: Signal transducer and activator of transcription 3 (Homo sapiens) (UniProt P40763); assay: Inhibition of STAT3 phosphorylation in HEL cells at 1 uM incubated for 24 hrs by Western blotting analysis; format: cell-based
[5] = molecular target: T1, Signal transducer and activator of transcription 1-alpha/beta (Homo sapiens) (UniProt P42224); assay: Inhibition of STAT1 phosphorylation in HEL cells at 1 uM incubated for 24 hrs by Western blotting analysis; format: cell-based
T1 sequence (whole entry): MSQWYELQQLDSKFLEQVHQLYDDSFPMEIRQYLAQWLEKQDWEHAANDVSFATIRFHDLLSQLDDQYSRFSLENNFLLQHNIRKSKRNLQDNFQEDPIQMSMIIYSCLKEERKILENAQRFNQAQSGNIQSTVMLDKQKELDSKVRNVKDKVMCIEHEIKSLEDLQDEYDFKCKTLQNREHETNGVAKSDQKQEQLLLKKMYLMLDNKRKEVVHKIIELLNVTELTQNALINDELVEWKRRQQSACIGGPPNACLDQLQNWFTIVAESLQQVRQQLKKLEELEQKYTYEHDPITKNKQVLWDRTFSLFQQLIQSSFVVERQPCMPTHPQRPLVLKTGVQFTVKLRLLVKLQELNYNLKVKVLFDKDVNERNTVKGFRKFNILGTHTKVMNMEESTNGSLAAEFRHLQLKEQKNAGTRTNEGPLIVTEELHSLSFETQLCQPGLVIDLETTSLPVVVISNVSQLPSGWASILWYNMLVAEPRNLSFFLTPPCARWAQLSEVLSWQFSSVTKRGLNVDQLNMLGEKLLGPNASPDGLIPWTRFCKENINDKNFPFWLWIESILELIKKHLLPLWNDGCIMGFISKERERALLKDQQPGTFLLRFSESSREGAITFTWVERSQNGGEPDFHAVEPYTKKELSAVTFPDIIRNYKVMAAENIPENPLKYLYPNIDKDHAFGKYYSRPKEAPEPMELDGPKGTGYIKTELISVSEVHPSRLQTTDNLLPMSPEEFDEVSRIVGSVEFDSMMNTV

[6] = molecular target: T1, Signal transducer and activator of transcription 1-alpha/beta (Homo sapiens); assay: Inhibition of STAT1 phosphorylation in HEL cells at 1 uM pretreated with MG132 followed by compound addition and measured after 24 hrs by Western blotting analysis; format: cell-based
[7] = molecular target: Signal transducer and activator of transcription 3 (Homo sapiens) (UniProt P40763); assay: Inhibition of STAT3 phosphorylation in HEL cells at 1 uM pretreated with MG132 followed by compound addition and measured after 24 hrs by Western blotting analysis; format: cell-based
[8] = molecular target: T1, Signal transducer and activator of transcription 1-alpha/beta (Homo sapiens); assay: Inhibition of STAT1 phosphorylation in HEL cells at 1 uM pretreated with momelotinib followed by compound addition and measured after 24 hrs by Western blotting analysis; format: cell-based
[9] = molecular target: Signal transducer and activator of transcription 3 (Homo sapiens) (UniProt P40763); assay: Inhibition of STAT3 phosphorylation in HEL cells at 1 uM pretreated with momelotinib followed by compound addition and measured after 24 hrs by Western blotting analysis; format: cell-based

Chain of Signal transducer and activator of transcription 3 (Homo sapiens) (P40763 whole entry): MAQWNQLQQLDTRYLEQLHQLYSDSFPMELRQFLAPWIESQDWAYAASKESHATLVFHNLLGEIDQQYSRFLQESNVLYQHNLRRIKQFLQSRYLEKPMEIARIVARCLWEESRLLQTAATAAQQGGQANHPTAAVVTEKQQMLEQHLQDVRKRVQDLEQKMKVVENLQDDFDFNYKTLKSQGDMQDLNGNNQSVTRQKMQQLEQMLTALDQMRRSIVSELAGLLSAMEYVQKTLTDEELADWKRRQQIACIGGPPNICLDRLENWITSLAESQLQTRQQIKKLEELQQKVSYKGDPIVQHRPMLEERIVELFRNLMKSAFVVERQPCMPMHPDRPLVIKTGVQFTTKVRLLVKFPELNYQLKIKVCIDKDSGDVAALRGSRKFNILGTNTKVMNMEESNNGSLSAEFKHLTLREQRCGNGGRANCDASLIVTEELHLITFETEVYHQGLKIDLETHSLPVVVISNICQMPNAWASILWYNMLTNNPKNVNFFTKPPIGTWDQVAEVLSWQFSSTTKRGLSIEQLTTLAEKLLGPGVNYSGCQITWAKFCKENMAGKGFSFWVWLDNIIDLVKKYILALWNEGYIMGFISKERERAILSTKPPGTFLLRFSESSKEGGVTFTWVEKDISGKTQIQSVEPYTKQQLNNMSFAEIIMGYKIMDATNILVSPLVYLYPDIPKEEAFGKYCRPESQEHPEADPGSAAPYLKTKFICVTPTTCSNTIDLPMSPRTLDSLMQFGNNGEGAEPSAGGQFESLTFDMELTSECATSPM

N#CCNC(=O)c1ccc(-c2ccnc(Nc3ccc(N4CCC(C(=O)NCCCC#Cc5cccc6c5C(=O)N(C5CCC(=O)NC5=O)C6=O)CC4)cc3)n2)cc1 (stereo not given)
IC50 [1]: 45.1 µM
IC50 [2]: > 50 µM
IC50 [3]: 37.1 µM

N#CCNC(=O)c1ccc(-c2ccnc(Nc3ccc(N4CCC(C(=O)NCCCCC#Cc5cccc6c5C(=O)N(C5CCC(=O)NC5=O)C6=O)CC4)cc3)n2)cc1 (stereo not given)
inhibition [4]: Active
inhibition [5]: Active
inhibition [6]: inactive
inhibition [7]: inactive
IC50 [1]: 6.1 µM
inhibition [8]: inactive
IC50 [2]: 10.5 µM
inhibition [9]: inactive
IC50 [3]: 1.3 µM

N#CCNC(=O)c1ccc(-c2ccnc(Nc3ccc(N4CCC(C(=O)NCCCCCC#Cc5cccc6c5C(=O)N(C5CCC(=O)NC5=O)C6=O)CC4)cc3)n2)cc1 (stereo not given)
IC50 [1]: > 50 µM
IC50 [2]: > 50 µM
IC50 [3]: > 50 µM
